For orientation: IC50 means the point on the concentration scale where inhibition reaches its midpoint. In general, Ki refers to a dissociation constant, usually derived from enzyme kinetics or from competition with a known ligand.

Consider 16 compounds from ChEMBL document CHEMBL1909046, “DrugMatrix in vitro pharmacology data”.

One series concerns the target T1, Androgen receptor (Rattus norvegicus, UniProt P15207). Also: in other assays of this panel Not Active means under 50% inhibition at 10 µM.
T1 sequence (P15207 whole entry): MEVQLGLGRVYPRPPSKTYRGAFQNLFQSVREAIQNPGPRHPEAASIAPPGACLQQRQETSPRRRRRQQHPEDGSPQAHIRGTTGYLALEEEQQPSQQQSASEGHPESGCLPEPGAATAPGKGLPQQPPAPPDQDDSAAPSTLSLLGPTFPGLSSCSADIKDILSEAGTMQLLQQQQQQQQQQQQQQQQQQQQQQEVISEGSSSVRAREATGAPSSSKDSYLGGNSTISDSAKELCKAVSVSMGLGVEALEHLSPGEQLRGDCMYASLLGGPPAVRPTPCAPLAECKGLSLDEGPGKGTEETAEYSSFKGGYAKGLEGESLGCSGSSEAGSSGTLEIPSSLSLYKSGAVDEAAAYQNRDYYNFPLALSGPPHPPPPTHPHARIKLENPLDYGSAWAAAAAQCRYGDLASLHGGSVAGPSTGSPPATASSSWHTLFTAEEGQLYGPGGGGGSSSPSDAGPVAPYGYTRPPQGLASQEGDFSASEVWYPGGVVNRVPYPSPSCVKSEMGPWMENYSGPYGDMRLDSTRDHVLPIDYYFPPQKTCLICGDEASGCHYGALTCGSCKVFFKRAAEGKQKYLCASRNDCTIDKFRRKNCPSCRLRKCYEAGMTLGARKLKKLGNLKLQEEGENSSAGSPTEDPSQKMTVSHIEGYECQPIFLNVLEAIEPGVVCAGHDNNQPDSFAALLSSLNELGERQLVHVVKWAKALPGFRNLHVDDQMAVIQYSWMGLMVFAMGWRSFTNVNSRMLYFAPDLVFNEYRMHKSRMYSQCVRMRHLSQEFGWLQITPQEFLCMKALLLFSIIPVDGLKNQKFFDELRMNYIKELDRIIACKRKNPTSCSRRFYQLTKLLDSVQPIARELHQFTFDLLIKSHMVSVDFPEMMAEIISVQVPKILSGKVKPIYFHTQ

Series [1] deals with Sodium-dependent noradrenaline transporter (Homo sapiens, UniProt P23975). Put plainly: DRUGMATRIX: Norepinephrine Transporter radioligand binding (ligand: [125I] RTI-55). To be noted: Not Active = under 50% inhibition at 10 µM. It counts as cell membranes, MDCK, Membrane.
Chain of Sodium-dependent noradrenaline transporter (P23975 whole entry): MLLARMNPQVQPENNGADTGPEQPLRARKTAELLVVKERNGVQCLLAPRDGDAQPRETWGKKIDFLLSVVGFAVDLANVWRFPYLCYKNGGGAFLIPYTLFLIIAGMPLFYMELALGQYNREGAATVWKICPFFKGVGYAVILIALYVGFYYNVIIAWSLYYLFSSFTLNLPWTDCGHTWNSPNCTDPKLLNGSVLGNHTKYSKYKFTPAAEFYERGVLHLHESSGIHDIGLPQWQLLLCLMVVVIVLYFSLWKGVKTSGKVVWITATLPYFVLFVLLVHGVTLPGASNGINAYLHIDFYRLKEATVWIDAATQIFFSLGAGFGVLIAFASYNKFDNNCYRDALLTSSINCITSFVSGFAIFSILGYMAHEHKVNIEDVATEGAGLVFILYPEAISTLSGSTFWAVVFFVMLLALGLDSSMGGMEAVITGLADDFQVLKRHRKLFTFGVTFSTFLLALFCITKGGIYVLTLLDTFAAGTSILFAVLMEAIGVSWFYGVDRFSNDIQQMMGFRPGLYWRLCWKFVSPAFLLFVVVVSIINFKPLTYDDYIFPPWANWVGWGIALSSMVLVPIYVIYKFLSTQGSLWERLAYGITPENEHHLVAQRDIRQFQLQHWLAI
The target in a further series is T2, Glucocorticoid receptor (Homo sapiens, UniProt P04150). Also: in other assays of this panel Not Active means under 50% inhibition at 10 µM.
T2 sequence (P04150 whole entry): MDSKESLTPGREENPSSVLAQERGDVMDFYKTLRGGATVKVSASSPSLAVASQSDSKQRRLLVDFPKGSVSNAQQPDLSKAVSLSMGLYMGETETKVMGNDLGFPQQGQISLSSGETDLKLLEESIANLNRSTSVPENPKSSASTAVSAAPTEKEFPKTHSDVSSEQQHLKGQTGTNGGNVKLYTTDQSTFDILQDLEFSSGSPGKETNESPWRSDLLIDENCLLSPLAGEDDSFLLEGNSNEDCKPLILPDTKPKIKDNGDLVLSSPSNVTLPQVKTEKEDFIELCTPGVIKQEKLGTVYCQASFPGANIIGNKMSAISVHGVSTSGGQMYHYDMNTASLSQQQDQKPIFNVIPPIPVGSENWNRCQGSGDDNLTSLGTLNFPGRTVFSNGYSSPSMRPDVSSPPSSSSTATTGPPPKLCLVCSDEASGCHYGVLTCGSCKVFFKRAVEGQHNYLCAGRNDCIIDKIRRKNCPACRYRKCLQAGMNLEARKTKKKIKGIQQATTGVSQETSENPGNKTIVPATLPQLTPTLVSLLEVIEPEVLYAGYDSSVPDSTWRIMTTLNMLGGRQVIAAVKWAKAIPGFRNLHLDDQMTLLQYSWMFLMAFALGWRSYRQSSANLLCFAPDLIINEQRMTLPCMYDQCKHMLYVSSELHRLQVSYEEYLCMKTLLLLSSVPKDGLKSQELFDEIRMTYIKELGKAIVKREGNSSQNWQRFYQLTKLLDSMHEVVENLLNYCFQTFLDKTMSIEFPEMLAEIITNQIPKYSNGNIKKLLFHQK
Particulars: hela s3.

Another series deals with Estrogen receptor beta (Homo sapiens, UniProt Q92731). To be noted: sf9.
Chain of Estrogen receptor beta (Q92731 whole entry): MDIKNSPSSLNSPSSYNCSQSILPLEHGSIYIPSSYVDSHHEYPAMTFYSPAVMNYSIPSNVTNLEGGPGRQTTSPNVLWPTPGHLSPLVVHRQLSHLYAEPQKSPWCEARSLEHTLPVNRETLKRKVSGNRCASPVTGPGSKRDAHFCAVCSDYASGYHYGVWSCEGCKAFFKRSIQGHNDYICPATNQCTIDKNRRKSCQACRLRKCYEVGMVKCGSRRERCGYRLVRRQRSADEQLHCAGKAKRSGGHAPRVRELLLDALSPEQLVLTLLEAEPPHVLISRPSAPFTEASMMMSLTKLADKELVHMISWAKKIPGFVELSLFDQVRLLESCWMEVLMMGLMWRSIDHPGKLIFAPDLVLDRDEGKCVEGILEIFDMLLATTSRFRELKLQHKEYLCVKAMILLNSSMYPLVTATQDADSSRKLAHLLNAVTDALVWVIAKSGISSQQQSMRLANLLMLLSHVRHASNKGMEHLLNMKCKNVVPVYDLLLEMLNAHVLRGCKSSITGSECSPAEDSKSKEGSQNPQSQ
The target of series [2] is Voltage-gated inwardly rectifying potassium channel KCNH2 (Homo sapiens, UniProt Q12809). To be noted: hek293. Also: in other assays of this panel Not Active means under 50% inhibition at 10 µM.
Chain of Voltage-gated inwardly rectifying potassium channel KCNH2 (Q12809 whole entry): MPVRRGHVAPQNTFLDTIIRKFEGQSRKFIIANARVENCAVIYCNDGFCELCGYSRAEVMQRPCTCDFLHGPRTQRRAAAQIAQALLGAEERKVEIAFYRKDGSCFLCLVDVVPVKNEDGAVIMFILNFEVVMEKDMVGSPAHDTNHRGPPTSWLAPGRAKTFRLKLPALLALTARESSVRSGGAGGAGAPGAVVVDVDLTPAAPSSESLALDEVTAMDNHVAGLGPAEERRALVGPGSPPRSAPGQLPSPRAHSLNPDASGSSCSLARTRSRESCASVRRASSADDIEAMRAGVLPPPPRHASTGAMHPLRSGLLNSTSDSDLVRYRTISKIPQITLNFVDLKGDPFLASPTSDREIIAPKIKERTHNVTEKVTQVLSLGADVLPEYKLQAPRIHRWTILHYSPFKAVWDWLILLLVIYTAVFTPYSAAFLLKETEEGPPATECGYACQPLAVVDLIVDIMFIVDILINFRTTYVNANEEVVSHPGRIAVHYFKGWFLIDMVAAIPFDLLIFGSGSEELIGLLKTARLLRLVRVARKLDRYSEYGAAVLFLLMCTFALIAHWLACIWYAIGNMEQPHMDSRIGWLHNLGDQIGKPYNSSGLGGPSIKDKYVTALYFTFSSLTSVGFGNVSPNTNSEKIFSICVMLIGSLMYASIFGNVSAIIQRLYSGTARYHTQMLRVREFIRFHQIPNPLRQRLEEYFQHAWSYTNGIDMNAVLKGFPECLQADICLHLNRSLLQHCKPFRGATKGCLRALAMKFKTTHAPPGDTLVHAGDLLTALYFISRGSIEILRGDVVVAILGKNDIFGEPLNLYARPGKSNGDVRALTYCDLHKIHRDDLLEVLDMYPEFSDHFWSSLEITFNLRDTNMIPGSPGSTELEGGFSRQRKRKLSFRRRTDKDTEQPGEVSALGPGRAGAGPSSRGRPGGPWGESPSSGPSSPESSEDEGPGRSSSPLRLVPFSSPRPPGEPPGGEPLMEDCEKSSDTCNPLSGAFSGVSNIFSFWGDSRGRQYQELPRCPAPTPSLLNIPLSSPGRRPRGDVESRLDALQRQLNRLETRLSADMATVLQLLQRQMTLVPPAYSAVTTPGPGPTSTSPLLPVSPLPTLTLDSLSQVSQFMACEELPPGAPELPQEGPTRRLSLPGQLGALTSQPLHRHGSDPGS
A further series concerns the target Cytochrome P450 3A4 (Homo sapiens, UniProt P08684). To be noted: bti-tn-5b1-4. Also: in other assays of this panel Not Active means under 50% inhibition at 10 µM.

Structures are written as SMILES.

Chain of Cytochrome P450 3A4 (P08684 whole entry): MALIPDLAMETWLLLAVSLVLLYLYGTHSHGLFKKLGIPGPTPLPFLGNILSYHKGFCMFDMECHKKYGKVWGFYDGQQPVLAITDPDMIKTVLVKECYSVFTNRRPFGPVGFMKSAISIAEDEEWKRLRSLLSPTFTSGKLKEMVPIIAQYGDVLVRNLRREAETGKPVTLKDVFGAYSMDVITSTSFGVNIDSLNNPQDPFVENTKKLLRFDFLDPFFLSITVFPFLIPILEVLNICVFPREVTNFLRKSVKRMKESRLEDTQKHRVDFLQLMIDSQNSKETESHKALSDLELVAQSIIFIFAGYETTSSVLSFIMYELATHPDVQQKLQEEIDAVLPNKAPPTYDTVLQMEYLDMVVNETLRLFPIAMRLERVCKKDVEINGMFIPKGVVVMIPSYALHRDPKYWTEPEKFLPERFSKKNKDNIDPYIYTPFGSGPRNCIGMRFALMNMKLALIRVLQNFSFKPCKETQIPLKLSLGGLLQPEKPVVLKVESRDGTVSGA

For `O=C1c2c(O)ccc(O)c2C(=O)c2c(NCCNCCO)ccc(NCCNCCO)c21` [MITOXANTRONE], the IC50 entry at Androgen receptor was “Not Active”; in series [1] (read-out: IC50), 4990 nM; on Glucocorticoid receptor it was “Not Active”; against Estrogen receptor beta, “Not Active”. The Ki in series [1] (read-out: Ki) worked out at 4950 nM.

On to `Nc1ccc(S(=O)(=O)Nc2ccnn2-c2ccccc2)cc1` [SULFAPHENAZOLE], for which the IC50 entry (in series [1] (mdck); in series [2]; against Glucocorticoid receptor; against Cytochrome P450 3A4; at Estrogen receptor beta) was “Not Active” throughout. Moreover, the Ki entry (in series [2]; at Cytochrome P450 3A4) was “Not Active” in each case.

Regarding `COc1cccc(C2(O)CCCCC2CN(C)C)c1` (stereo unspecified) [TRAMADOL], the half-maximal inhibitory concentration (IC50) entry (against Androgen receptor; in series [2]; on Glucocorticoid receptor) was “Not Active” throughout. The Ki entry in series [2] is recorded as “Not Active”.

Turning to `NNC(=O)c1ccncc1` [ISONIAZID], the IC50 entry (in series [1] (mdck); in series [2]; on Glucocorticoid receptor; at Cytochrome P450 3A4; against Estrogen receptor beta) was “Not Active” throughout. For the same compound, the Ki entry (in series [2]; at Cytochrome P450 3A4) was “Not Active” in each case.

With `NC(=O)c1ccccc1O` [SALICYLAMIDE], the 50% inhibitory concentration (IC50) result (in series [1] (mdck); in series [2]; at Glucocorticoid receptor; at Cytochrome P450 3A4; against Estrogen receptor beta) was “Not Active” in each case. The Ki entry (in series [2]; on Cytochrome P450 3A4) was “Not Active” throughout.

Take `CC1CN(c2cc3c(cc2F)c(=O)c(C(=O)O)cn3-c2ccc(F)cc2F)CCN1` (stereo unspecified) [TEMAFLOXACIN]: the IC50 entry (in series [1] (mdck); in series [2]; against Glucocorticoid receptor; at Cytochrome P450 3A4; on Estrogen receptor beta) was “Not Active” in each case. For the same compound, the Ki entry (in series [2]; at Cytochrome P450 3A4) was “Not Active” throughout.

With `CN1CCN2c3ccccc3Cc3ccccc3C2C1` (stereo unspecified) [MIANSERIN], the IC50 result (on Androgen receptor; in series [2]; at Glucocorticoid receptor; on Cytochrome P450 3A4; at Estrogen receptor beta) was “Not Active” each time. Also, the Ki result (in series [2]; on Cytochrome P450 3A4) was “Not Active” each time.

On to `CCC[C@@H]1C[C@@H](C(=O)N[C@@H]([C@H]2O[C@H](SC)[C@H](O)[C@@H](O)[C@H]2O)[C@@H](C)O)N(C)C1` [LINCOMYCIN], for which the IC50 entry (in series [1] (mdck); in series [2]; at Glucocorticoid receptor; against Cytochrome P450 3A4; against Estrogen receptor beta) was “Not Active” throughout. Moreover, the Ki result (in series [2]; at Cytochrome P450 3A4) was “Not Active” throughout.

As to `Clc1ccc(C(c2ccccc2Cl)C(Cl)Cl)cc1` (stereo unspecified) [MITOTANE], the IC50 is 819 nM in series [1] (read-out: IC50); “Not Active” in series [2]; “Not Active” on Glucocorticoid receptor; “Not Active” on Cytochrome P450 3A4; “Not Active” on Estrogen receptor beta. Further, the Ki in series [1] (read-out: Ki) is 812 nM; in series [2], “Not Active”; at Cytochrome P450 3A4 it was “Not Active”.

As to `CC(C)(O)c1ccccc1CC[C@@H](SCC1(CC(=O)O)CC1)c1cccc(/C=C/c2ccc3ccc(Cl)cc3n2)c1` [MONTELUKAST], the IC50 result (against Androgen receptor; in series [2]; on Glucocorticoid receptor; at Cytochrome P450 3A4; against Estrogen receptor beta) was “Not Active” each time. The Ki result (in series [2]; on Cytochrome P450 3A4) was “Not Active” each time.

Take `CN[C@H](CC(C)C)C(=O)N[C@H]1C(=O)N[C@@H](CC(N)=O)C(=O)N[C@H]2C(=O)N[C@H]3C(=O)N[C@H](C(=O)N[C@H](C(=O)O)c4cc(O)cc(O)c4-c4cc3ccc4O)[C@H](O)c3ccc(c(Cl)c3)Oc3cc2cc(c3O[C@@H]2O[C@H](CO)[C@@H](O)[C@H](O)[C@H]2O[C@H]2C[C@](C)(N)[C@H](O)[C@H](C)O2)Oc2ccc(cc2Cl)[C@H]1O` [VANCOMYCIN]: the half-maximal inhibitory concentration (IC50) entry (in series [1] (mdck); in series [2]; against Glucocorticoid receptor; against Cytochrome P450 3A4; on Estrogen receptor beta) was “Not Active” each time. The Ki entry (in series [2]; at Cytochrome P450 3A4) was “Not Active” each time.

With `CO[C@@H]1[C@@H](O[C@@H]2O[C@H](C)[C@@H](O[C@H]3C[C@@](C)(O)[C@@H](OC(=O)CC(C)C)[C@H](C)O3)[C@H](N(C)C)[C@H]2O)[C@@H](CC=O)C[C@@H](C)[C@@H](O)/C=C/C=C/C[C@@H](C)OC(=O)C[C@H]1O` [KITASAMYCIN], the 50% inhibitory concentration (IC50) entry (in series [1] (mdck); in series [2]; on Glucocorticoid receptor; on Cytochrome P450 3A4; on Estrogen receptor beta) was “Not Active” each time. The Ki result (in series [2]; at Cytochrome P450 3A4) was “Not Active” in each case.

Consider `Oc1c(I)cc(I)c2cccnc12` [IODOQUINOL], for which the half-maximal inhibitory concentration (IC50) entry (in series [1] (mdck); in series [2]; on Glucocorticoid receptor; at Cytochrome P450 3A4; at Estrogen receptor beta) was “Not Active” throughout. Besides, the Ki entry (in series [2]; on Cytochrome P450 3A4) was “Not Active” each time.

As to `O=[N+]([O-])c1cc([As](=O)(O)O)ccc1O` [ROXARSONE], the IC50 entry (in series [1] (mdck); in series [2]; against Glucocorticoid receptor; against Cytochrome P450 3A4; at Estrogen receptor beta) was “Not Active” throughout. For the same compound, the Ki result (in series [1] (mdck); in series [2]; on Glucocorticoid receptor; on Cytochrome P450 3A4; at Estrogen receptor beta) was “Not Active” in each case.

As to `Cc1ncc([N+](=O)[O-])n1CC(C)O` (stereo unspecified) [SECNIDAZOLE], the 50% inhibitory concentration (IC50) result (in series [1] (mdck); in series [2]; at Glucocorticoid receptor; on Cytochrome P450 3A4; against Estrogen receptor beta) was “Not Active” throughout. The Ki entry (in series [2]; on Cytochrome P450 3A4) was “Not Active” each time.

As to `CC(C)[C@H](N)C(=O)OCCOCn1cnc2c(=O)nc(N)[nH]c21` [VALACYCLOVIR], the IC50 result (in series [1] (mdck); in series [2]; against Glucocorticoid receptor; against Cytochrome P450 3A4; against Estrogen receptor beta) was “Not Active” throughout. Further, the Ki entry (in series [2]; on Cytochrome P450 3A4) was “Not Active” each time.
